Results from ChEMBL document CHEMBL4316596, “Antimicrobial Peptides with High Proteolytic Resistance for Combating Gram-Negative Bacteria” (J Med Chem, 2019).
The source made the active and inactive calls. No cut-off for these calls is given here.

Legend:
[1] = test system: Escherichia coli; assay: Antimicrobial activity against Escherichia coli ATCC 25922 after 24 hrs by NCCLS-protocol based assay; format: functional; conditions: ATCC 25922, 24 h
[2] = test system: Escherichia coli; assay: Antimicrobial activity against Escherichia coli K99 after 24 hrs by NCCLS-protocol based assay; format: functional; conditions: K99, 24 h
[3] = test system: Pseudomonas aeruginosa; assay: Antimicrobial activity against Pseudomonas aeruginosa PAO1 after 24 hrs by NCCLS-protocol based assay; format: functional; conditions: PAO1, 24 h
[4] = test system: Pseudomonas aeruginosa; assay: Antimicrobial activity against Pseudomonas aeruginosa 26305 clinical isolates after 24 hrs by NCCLS-protocol based assay; format: functional; conditions: Pseudomonas aeruginosa, 26305, 24 h
[5] = test system: Pseudomonas aeruginosa; assay: Antimicrobial activity against Pseudomonas aeruginosa CICC 21625 clinical isolates after 24 hrs by NCCLS-protocol based assay; format: functional; conditions: CICC 21625, 24 h
[6] = test system: Pseudomonas aeruginosa; assay: Antimicrobial activity against Pseudomonas aeruginosa 25349 clinical isolates after 24 hrs by NCCLS-protocol based assay; format: functional; conditions: Pseudomonas aeruginosa, 25349, 24 h
[7] = test system: Salmonella typhimurium; assay: Antimicrobial activity against Salmonella typhimurium ATCC 14028 after 24 hrs by NCCLS-protocol based assay; format: functional, Salmonella enterica subsp. enterica serovar Typhimurium; conditions: Salmonella enterica, ATCC 14028, 24 h
[8] = test system: Salmonella typhimurium; assay: Antimicrobial activity against Salmonella typhimurium C7731 after 24 hrs by NCCLS-protocol based assay; format: functional, Salmonella enterica subsp. enterica serovar Typhimurium; conditions: Salmonella enterica, C7731, 24 h
[9] = Antimicrobial activity against Salmonella pullorum C7913 after 24 hrs by NCCLS-protocol based assay; format: functional, Salmonella enterica subsp. enterica serovar Pullorum; conditions: Salmonella enterica, C7913, 24 h
[10] = test system: Acinetobacter baumannii; assay: Antimicrobial activity against Acinetobacter baumannii after 24 hrs by NCCLS-protocol based assay; format: functional
[11] = test system: Pseudomonas aeruginosa; assay: Antimicrobial activity against Pseudomonas aeruginosa ATCC 27853 at sub-MBC after 60 passages; format: functional, organism-based
[12] = test system: Erythrocyte; assay: Hemolytic activity against human RBC after 1 hr; format: ADME, cell-based
[13] = test system: HEK-293T; assay: Cytotoxicity against HEK293T cells assessed as cell death after 18 to 24 hrs by MTT assay; format: cell-based; conditions: Homo sapiens
[14] = Cytotoxicity against IPECJ2 cells assessed as cell death after 18 to 24 hrs by MTT assay; format: cell-based; conditions: Sus scrofa, IPEC-J2
[15] = test system: Escherichia coli; assay: Bactericidal activity against Escherichia coli ATCC 25922 incubated for 4 hrs followed by culture spread on agar plates and cultured overnight; format: functional; conditions: ATCC 25922, 4 h, read-out: MBC>99.9
[16] = Selectivity ratio of IC50 for mouse RAW264.7 cells to geometric mean of the peptide MBC for bacteria
[17] = Selectivity ratio of IC50 for HEK293T cells to geometric mean of the peptide MBC for bacteria
[18] = Selectivity ratio of IC50 for pig IPECJ2 cells to geometric mean of the peptide MBC for bacteria
[19] = test system: Escherichia coli; assay: Bactericidal activity against Escherichia coli ATCC 25922 incubated for 4 hrs followed by culture spread on agar plates and cultured overnight in presence of NaCl; format: functional; conditions: ATCC 25922, 4 h, read-out: MBC>99.9
[20] = test system: Escherichia coli; assay: Bactericidal activity against Escherichia coli ATCC 25922 incubated for 4 hrs followed by culture spread on agar plates and cultured overnight in presence of CaCl2; format: functional; conditions: ATCC 25922, 4 h, read-out: MBC>99.9
[21] = test system: Escherichia coli; assay: Bactericidal activity against Escherichia coli ATCC 25922 incubated for 4 hrs followed by culture spread on agar plates and cultured overnight in presence of ZnCl2; format: functional; conditions: ATCC 25922, 4 h, read-out: MBC>99.9
[22] = test system: Escherichia coli; assay: Bactericidal activity against Escherichia coli ATCC 25922 incubated for 4 hrs followed by culture spread on agar plates and cultured overnight in presence of FeCl3; format: functional; conditions: ATCC 25922, 4 h, read-out: MBC>99.9
[23] = test system: Escherichia coli; assay: Bactericidal activity against Escherichia coli ATCC 25922 incubated for 4 hrs followed by culture spread on agar plates and cultured overnight in presence of MgCl2; format: functional; conditions: ATCC 25922, 4 h, read-out: MBC>99.9
[24] = test system: Escherichia coli; assay: Bactericidal activity against Escherichia coli ATCC 25922 incubated for 4 hrs followed by culture spread on agar plates and cultured overnight in presence of 4 mg/ml trypsin; format: functional; conditions: ATCC 25922, 4 h, read-out: MBC>99.9
[25] = test system: Escherichia coli; assay: Bactericidal activity against Escherichia coli ATCC 25922 incubated for 4 hrs followed by culture spread on agar plates and cultured overnight in presence of 1 mg/ml trypsin; format: functional; conditions: ATCC 25922, 4 h, read-out: MBC>99.9
[26] = test system: Escherichia coli; assay: Bactericidal activity against Escherichia coli ATCC 25922 incubated for 4 hrs followed by culture spread on agar plates and cultured overnight in presence of 0.5 mg/ml trypsin; format: functional; conditions: ATCC 25922, 4 h, read-out: MBC>99.9
[27] = test system: Escherichia coli; assay: Bactericidal activity against Escherichia coli ATCC 25922 incubated for 4 hrs followed by culture spread on agar plates and cultured overnight in presence of 0.25 mg/ml trypsin; format: functional; conditions: ATCC 25922, 4 h, read-out: MBC>99.9
[28] = test system: Escherichia coli; assay: Bactericidal activity against Escherichia coli ATCC 25922 incubated for 4 hrs followed by culture spread on agar plates and cultured overnight in presence of 4 mg/ml chymotrypsin; format: functional; conditions: ATCC 25922, 4 h, read-out: MBC>99.9
[29] = test system: Escherichia coli; assay: Bactericidal activity against Escherichia coli ATCC 25922 incubated for 4 hrs followed by culture spread on agar plates and cultured overnight in presence of 1 mg/ml chymotrypsin; format: functional; conditions: ATCC 25922, 4 h, read-out: MBC>99.9
[30] = test system: Escherichia coli; assay: Antibacterial activity against Escherichia coli ATCC 25922 infected in ICR mouse assessed as log reduction in bacterial cells in spleen at 5 mg/kg, ip administered at 5 mg/kg, ip dosed at 0.5, 2, 4 and 8 hrs post-infection; format: functional
[31] = test system: Escherichia coli; assay: Antibacterial activity against Escherichia coli ATCC 25922 infected in ICR mouse assessed as log reduction in bacterial cells in liver at 5 mg/kg, ip administered at 5 mg/kg, ip dosed at 0.5, 2, 4 and 8 hrs post-infection; format: functional
[32] = test system: Escherichia coli; assay: Antibacterial activity against Escherichia coli ATCC 25922 infected in ICR mouse assessed as log reduction in bacterial cells in peritoneal cavity at 5 mg/kg, ip administered at 5 mg/kg, ip dosed at 0.5, 2, 4 and 8 hrs post-infection; format: functional
[33] = test system: Escherichia coli; assay: Bactericidal activity against Escherichia coli ATCC 25922 incubated for 4 hrs followed by culture spread on agar plates and cultured overnight in presence of 4 mg/ml pepsin; format: functional, organism-based
[34] = test system: Escherichia coli; assay: Bactericidal activity against Escherichia coli K88 incubated for 4 hrs followed by culture spread on agar plates and cultured overnight; format: functional; conditions: K88, 4 h, read-out: MBC>99.9
[35] = test system: Pseudomonas aeruginosa; assay: Bactericidal activity against Pseudomonas aeruginosa ATCC 27853 incubated for 4 hrs followed by culture spread on agar plates and cultured overnight; format: functional; conditions: ATCC 27853, 4 h, read-out: MBC>99.9
[36] = test system: Pseudomonas aeruginosa; assay: Bactericidal activity against Pseudomonas aeruginosa PAO1 incubated for 4 hrs followed by culture spread on agar plates and cultured overnight; format: functional; conditions: PAO1, 4 h, read-out: MBC>99.9
[37] = test system: Pseudomonas aeruginosa; assay: Bactericidal activity against Pseudomonas aeruginosa CICC 21630 clinical isolates incubated for 4 hrs followed by culture spread on agar plates and cultured overnight; format: functional; conditions: CICC 21630, 4 h, read-out: MBC>99.9
[38] = test system: Pseudomonas aeruginosa; assay: Bactericidal activity against Pseudomonas aeruginosa CICC 21625 clinical isolates incubated for 4 hrs followed by culture spread on agar plates and cultured overnight; format: functional; conditions: CICC 21625, 4 h, read-out: MBC>99.9
[39] = test system: Pseudomonas aeruginosa; assay: Bactericidal activity against Pseudomonas aeruginosa 25349 clinical isolates incubated for 4 hrs followed by culture spread on agar plates and cultured overnight; format: functional; conditions: Pseudomonas aeruginosa, 25349, 4 h; read-out: MBC>99.9
[40] = test system: Salmonella typhimurium; assay: Bactericidal activity against Salmonella typhimurium C7731 incubated for 4 hrs followed by culture spread on agar plates and cultured overnight; format: functional, Salmonella enterica subsp. enterica serovar Typhimurium; conditions: Salmonella enterica, C7731, 4 h; read-out: MBC>99.9

Substance | MIC95 [1] | MIC95 [2] | MIC95 [3] | MIC95 [4] | MIC95 [5] | MIC95 [6] | MIC95 [7] | MIC95 [8] | MIC95 [9] | MIC95 [10] | Activity [11] | HC10 [12] | IC50 [13] | IC50 [14] | MBC [15] | Ratio [16] | Ratio [17] | Ratio [18] | MBC [19] | MBC [20] | further results
H-LKPLLKPLLKPLLKPLLKPLLKPLLKPL-NH2 | 0.5 µM | 1 µM | 1 µM | 4 µM | 8 µM | 8 µM | 1 µM | 2 µM | 2 µM | 1 µM | Active | > 128 µM | 47.4 µM | 24.4 µM | 1 µM | 0.58 | 17.49 | 9.01 | 8 µM | > 128 µM | MBC [21]: 1 µM; MBC [22]: 2 µM; MBC [23]: 2 µM; MBC [24]: 1 µM; MBC [25]: 1 µM; MBC [26]: 1 µM; MBC [27]: 1 µM; MBC [28]: > 64 µM; MBC [29]: 1 µM; log(activity) [30]: 1; log(activity) [31]: 1; log(activity) [32]: 1; Activity [33]: inactive; MBC [34]: 1 µM; MBC [35]: 2 µM; MBC [36]: 1 µM; MBC [37]: 8 µM; MBC [38]: 16 µM; MBC [39]: 8 µM; MBC [40]: 2 µM
H-LRPLLRPLLRPLLRPLLRPLLRPLLRPL-NH2 | 1 µM | 1 µM | 1 µM | 2 µM | 8 µM | 4 µM | 1 µM | 2 µM | 1 µM | 1 µM | Active | 64 µM | 19.2 µM | 10.7 µM | 2 µM | 0.89 | 7.42 | 4.11 | 4 µM | 16 µM | MBC [21]: 2 µM; MBC [22]: 2 µM; MBC [23]: 2 µM; MBC [24]: 2 µM; MBC [25]: 2 µM; MBC [26]: 2 µM; MBC [27]: 2 µM; MBC [28]: > 64 µM; MBC [29]: > 64 µM; log(activity) [30]: 1; log(activity) [31]: 1; log(activity) [32]: 1; Activity [33]: inactive; MBC [34]: 1 µM; MBC [35]: 4 µM; MBC [36]: 2 µM; MBC [37]: 4 µM; MBC [38]: 8 µM; MBC [39]: 8 µM; MBC [40]: 2 µM
